From publication PMC9944328 (Nature Communications, 2023)
Entries after “also recorded” stand apart in the source; their conditions may differ. Where two headings read alike, the source gives them in different places.

Experiments:
[1] = biological target: T1, SSTR3 (Homo sapiens, UniProt P32745); experiment: SSTRs Gi-mediated cAMP inhibition, GloSensor, HEK293 (SSTR3 wild-type); assay type: cell-based; set-up: Bottom / Top / Span / Top (best-fit): unit not given here; settings: for Emax: HEK293; for LogEC50 (best-fit) / Top (best-fit): cAMP inhibition
T1 construct: The human full-length SSTRs and mutants were cloned into the pcDNA3.1+ vector; expressed in transfected cells; host or cells: HEK293 (ATCC, CRL-1573)
Method: (§1) The levels of the intracellular 3′, 5′-cyclic AMP (cAMP) were measured by the GloSensor cAMP assay (Promega) as described in the previous studies[28],[41] which has been widely used. The human full-length SSTRs and mutants were cloned into the pcDNA3.1+ vector with a HA signal sequence followed by a Flag tag at the N-terminus. […] Cells were then co-transfected with SSTR wild-type or mutants and GloSensor plasmids. After 24 h of transfection, the cells were dissociated with TrypLE™ Express Enzyme (1X) (Thermo Fisher Scientific) and collected by centrifugation at 500 × g for 5 min. Then the collected cells were suspended in Hank’s balanced salt solution [HBSS (Thermo Fisher Scientific)] supplemented with […] potassium salt solution (YEASEN), and then the suspension cells were seeded into 96-well plates with 90 μl/well. After incubating at room temperature for 40 min, 5 μM forskolin and ligands diluted in HBSS were added to each well and the plates were incubated at room temperature for 15 min. […] signals were measured using the Synergy H1 microplate reader (BioTek) and the data presented are means of at least three independent experiments.

[2] = biological target: SSTR3 mutants (Homo sapiens, UniProt P32745); experiment: SSTRs Gi-mediated cAMP inhibition, GloSensor, HEK293 (SSTR3 mutants); assay type: cell-based; set-up: Bottom / Top / Span / Top (best-fit): unit not given here; settings: for Emax: HEK293; for LogEC50 (best-fit) / Top (best-fit): cAMP inhibition, SSTR3 N101V
Method: as §1

[3] = biological target: T2, SSTR3 mutants (Homo sapiens, UniProt P32745, H192T); experiment: as above; assay type: cell-based; set-up: Bottom / Top / Span / Top (best-fit): unit not given here; settings: for Emax: HEK293; for LogEC50 (best-fit) / Top (best-fit): cAMP inhibition, SSTR3 H192T
T2 construct: The human full-length SSTRs and mutants were cloned into the pcDNA3.1+ vector; expressed in transfected cells; host or cells: HEK293 (ATCC, CRL-1573)
Method: as §1

[4] = test system: SSTR2 mutants; experiment: SSTR2 internalization by ELISA, HEK293, 30 min 37 °C (mutants); assay type: cell-based, human; settings: I284ECL3A, K291A, N276A, F294A, Bystander BRET or confocal
Method: HEK293 cells were seeded into 96-well microplates at a density of 4 × 10^4 cells/well and cultured for 24 h at 37 °C with 5% CO2 and were transfected using the same procedure as the cAMP accumulation assay. The plates were washed with washing buffer (PBS) the day after transfection, and were fixed with 4% formalin at room temperature for 30 min. Cells were washed with washing buffer and blocked with PBS supplemented with 5% BSA for 1 h at room temperature. After that, cells were incubated with anti-Flag antibody (1:1000 diluted with PBS containing 5% BSA, Proteintech: 66008-4-Ig) for 1 h at room temperature. After 1 h incubation, cells were washed with washing buffer and incubating with HRP-conjugated secondary antibody for 2 h at room temperature. After incubating and washing, 50 μl of chromogenic solution was added to each well, and reacted at room temperature for 10 min, and then 0.5 M HCl were added to stop the reaction.
All data presented are means at least three independent experiments.

[5] = test system: GH3 cells; experiment: Cell apoptosis assay, Annexin V-FITC/PI flow cytometry, GH3 cells overexpressing SSTR2, 48 h; assay type: cell-based, rat
Method: The rat pituitary GH3 cells (ATCC, CCL-82.1) were seeded in 12-well plates at 1.5 × 10^5/well. […] Then, the cells were collected for the apoptosis assay according to the instruction of the Annexin V-FITC/PI apoptosis detection kit (BD Biosciences). Briefly, the cells were washed with cold PBS and resuspended in 1 × binding buffer. Then, 5 μl of Annexin V-FITC was added and incubated for 10 min and stained with 5 μl of PI for 5 min in the dark at room temperature. All samples were acquired by a Novocyte flow cytometer (ACEA Biosciences, China), and data were analyzed with NovoExpress^TM software.

[6] = test system: SSTR2; experiment: Bias factor (β value), Gi cAMP inhibition versus β-arrestin recruitment; assay type: cell-based, human; settings: for Effect of microswitch mutations: CWxP, PIF, DRY and NPxxY motif mutants versus wild-type SSTR2; for Effect of mutants on both signals: D122(3.32) and Q126(3.36) mutants
Method: as §1
The NanoBiT β-arrestin 1 recruitment assays were carried out according to the method described previously. […] Human full-length SSTR wild-type and mutant vectors were C-terminally fused with a 15-amino acid flexible linker and the small fragment (SmBiT). HEK293 cells were seeded into six-well microplates at a density of 1.0 × 10^6 cells/well and cultured for 24 h at 37 °C with 5% CO2. After that, cells were co-transfected with pcDNA3.1+ vectors encoding SSTR wild-type or mutants and human β-arrestin 1. After transfecting for 24 h, the transfected cells were suspended and seeded into white 96-well plates, and then cultured at 37 °C overnight. After that the medium in each well was exchanged for 90 μl of 0.01% bovine serum albumin containing 20 μl of 50 μM coelenterazine h (Carbosynth) diluted in the HBSS assay buffer and incubated for 40 min at room temperature. Then, ligands diluted in the assay buffer was added to each well and the luminescence intensity was measured using the Synergy H1 microplate reader and detected at room temperature in a time period. All data presented are means of at least three independent experiments.
All data in this study were analyzed using GraphPad Prism 7 and were expressed as the error bars and the standard error of means ± SEM from at least n = 3 biologically independent experiments performed in triplicate. All curve data were normalized to the maximal wild-type and processed using a sigmoidal dose response curve in GraphPad Prism 7. Statistical differences between conditions were determined by one-way of variance ANOVA with Dunnett’s test or T-test.

[7] = biological target: SSTR2 mutants (Homo sapiens, UniProt P30874, R140A)
[8] = biological target: SSTR2 mutants (Homo sapiens, UniProt P30874, Y312A)
[9] = Suppl. Tables 4/5, SSTR3-WT, n=5
[10] = best-fit, SSTR3 WT-1 (F296D set)
[11] = best-fit, SSTR3 WT-1 (H192T set)
[12] = best-fit, SSTR3 WT-1 (M193I set)
[13] = best-fit, SSTR3 WT-1 (N101V set)
[14] = best-fit, SSTR3 WT-2 (F296D set)
[15] = best-fit, SSTR3 WT-2 (H192T set)
[16] = best-fit, SSTR3 WT-2 (M193I set)
[17] = best-fit, SSTR3 WT-2 (N101V set)
[18] = best-fit, SSTR3 WT-3 (F296D set)
[19] = best-fit, SSTR3 WT-3 (M193I set)
[20] = best-fit, SSTR3 WT-3 (N101V set)

T2 sequence (P32745 whole entry H192T): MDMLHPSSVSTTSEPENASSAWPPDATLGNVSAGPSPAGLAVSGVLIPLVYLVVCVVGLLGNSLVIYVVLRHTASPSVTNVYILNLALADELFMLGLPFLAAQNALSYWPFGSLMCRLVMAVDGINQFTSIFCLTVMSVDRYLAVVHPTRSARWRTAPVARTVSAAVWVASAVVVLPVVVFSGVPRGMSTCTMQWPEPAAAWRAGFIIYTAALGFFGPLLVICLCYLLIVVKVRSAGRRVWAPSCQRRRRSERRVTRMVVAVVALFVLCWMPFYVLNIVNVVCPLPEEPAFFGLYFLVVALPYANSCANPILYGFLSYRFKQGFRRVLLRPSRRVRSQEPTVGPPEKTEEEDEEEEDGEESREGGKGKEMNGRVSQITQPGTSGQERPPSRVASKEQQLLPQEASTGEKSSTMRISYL
T1 sequence (P32745 whole entry): as the sequence (P32745 whole entry H192T) above, with T192H counted along it
Chain of SSTR3 mutants (Homo sapiens, UniProt P32745) (P32745 whole entry N104V): as the sequence (P32745 whole entry H192T) above, with N104V, T192H counted along it
Chain of SSTR2 mutants (Homo sapiens, UniProt P30874, Y312A) (P30874 whole entry Y312A): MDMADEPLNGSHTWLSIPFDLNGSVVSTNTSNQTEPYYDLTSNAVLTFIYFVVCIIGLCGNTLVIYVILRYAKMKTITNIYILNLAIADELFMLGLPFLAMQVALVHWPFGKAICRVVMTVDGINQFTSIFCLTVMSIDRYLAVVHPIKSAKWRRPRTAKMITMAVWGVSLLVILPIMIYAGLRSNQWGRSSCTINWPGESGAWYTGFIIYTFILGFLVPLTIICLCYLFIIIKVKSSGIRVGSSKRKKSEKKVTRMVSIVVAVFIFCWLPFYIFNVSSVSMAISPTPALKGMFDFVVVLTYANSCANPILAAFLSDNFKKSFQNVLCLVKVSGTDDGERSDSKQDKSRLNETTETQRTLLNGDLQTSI
Chain of SSTR2 mutants (Homo sapiens, UniProt P30874, R140A) (P30874 whole entry R140A): as the sequence (P30874 whole entry Y312A) above, with R140A, A312Y counted along it

## C[C@@H](O)[C@@H]1NC(=O)[C@H](CCCCN)NC(=O)[C@@H](Cc2c[nH]c3ccccc23)NC(=O)[C@H](Cc2ccccc2)NC(=O)[C@@H](NC(=O)[C@H](N)Cc2ccccc2)CSSC[C@@H](C(=O)N[C@H](CO)[C@@H](C)O)NC1=O [octreotide]
[1]; [9]
  Emax: 99.8 ± 8.21%
[1]; SSTR3-WT, run 1
  LogEC50 (best-fit): -7.262
  Top (best-fit): 103
[1]; SSTR3-WT, run 2
  LogEC50 (best-fit): -7.521
  Top (best-fit): 99.85
[1]; SSTR3-WT, run 3
  LogEC50 (best-fit): -7.466
  Top (best-fit): 98.24
[1]; SSTR3-WT, run 4
  LogEC50 (best-fit): -8.231
  Top (best-fit): 100.3
[2]
  Emax: 120 ± 3.57%
[2]; run 1
  LogEC50 (best-fit): -8.602
  Top (best-fit): 99.48
[2]; run 2
  LogEC50 (best-fit): -8.875
  Top (best-fit): 120.3
[2]; run 3
  LogEC50 (best-fit): -8.73
  Top (best-fit): 98.22
[2]; run 4
  LogEC50 (best-fit): -9.386
  Top (best-fit): 101.4
[3]; H192(45.51)T mutant of SSTR3
  EC50 of mutant versus wild-type: retained a similar EC50 as wild-type receptor
[3]; Suppl. Tables 4/5, SSTR3 H192(45.51)T, n=3, read-out: Emax
  Emax: 92.4 ± 10.2%
[3]; run 1
  LogEC50 (best-fit): -7.081
  Top (best-fit): 99.15
[3]; run 2
  LogEC50 (best-fit): -7.677
  Top (best-fit): 107.4
[3]; run 3
  LogEC50 (best-fit): -7.174
  Top (best-fit): 100.5
[3]; run 4
  LogEC50 (best-fit): -7.758
  Top (best-fit): 101.2
[4]
  Internalization of mutants: diminished internalization
[5]
  Proapoptotic activity: able to activate proapoptotic pathways
[6]
  Effect of microswitch mutations: decreased the potency of β-arrestin recruitment more markedly than the activation ability of Gi signaling
  Effect of mutants on both signals: markedly affected both β-arrestin and Gi signal
[7]
  Emax: 48.4 ± 0.93%
[8]
  Emax: 45.6 ± 1.21%

## N#Cc1cccc(-c2ccc3ncc(-c4cc(F)cc(F)c4)c(N4CCC(N)CC4)c3c2)c1O [paltusotine]
[1]
  EC50: 2.6 nM
[1]; [9]
  Emax: 36.7 ± 11.7%
[1]; Suppl. Tables 4/5, SSTR3-WT
  Fold of WT: 1
[1]; Suppl. Tables 4/5, SSTR3-WT, n=5, read-out: EC50
  EC50: 63.8 ± 1.33 nM
[1]; [10]
  Bottom: 7.289
  LogEC50: -5.765
  Span: 89.66
  Top: 96.95
[1]; [11]
  Bottom: -24.33
  LogEC50: -7.352
  Span: 140.2
  Top: 115.9
[1]; best-fit, SSTR3 WT-1 (H192T set), read-out: EC50
  EC50: 44.5 nM
[1]; [12]
  Bottom: 2.721
  LogEC50: -7.195
  Span: 103.1
  Top: 105.9
[1]; best-fit, SSTR3 WT-1 (M193I set), read-out: EC50
  EC50: 63.8 nM
[1]; [13]
  Bottom: 2.721
  LogEC50: -7.195
  Span: 103.1
  Top: 105.9
[1]; best-fit, SSTR3 WT-1 (N101V set), read-out: EC50
  EC50: 63.8 nM
[1]; [14]
  Bottom: 2.721
  LogEC50: -7.195
  Span: 103.1
  Top: 105.9
[1]; best-fit, SSTR3 WT-2 (F296D set), read-out: EC50
  EC50: 63.8 nM
[1]; [15]
  Bottom: -19.9
  LogEC50: -7.557
  Span: 137.3
  Top: 117.4
[1]; best-fit, SSTR3 WT-2 (H192T set), read-out: EC50
  EC50: 27.7 nM
[1]; [16]
  Bottom: -0.9229
  LogEC50: -7.198
  Span: 106.7
  Top: 105.8
[1]; best-fit, SSTR3 WT-2 (M193I set), read-out: EC50
  EC50: 63.4 nM
[1]; [17]
  Bottom: -0.442
  LogEC50: -8.585
  Span: 97.55
  Top: 97.11
[1]; [18]
  Bottom: -0.9229
  LogEC50: -7.198
  Span: 106.7
  Top: 105.8
[1]; best-fit, SSTR3 WT-3 (F296D set), read-out: EC50
  EC50: 63.4 nM
[1]; [19]
  Bottom: -0.442
  LogEC50: -8.585
  Span: 97.55
  Top: 97.11
[1]; [20]
  Bottom: -0.9229
  LogEC50: -7.198
  Span: 106.7
  Top: 105.8
[1]; best-fit, SSTR3 WT-3 (N101V set), read-out: EC50
  EC50: 63.4 nM
[2]
  Emax: 90.7 ± 7.93%
[2]; Suppl. Tables 4/5, SSTR3 N101(2.64)V
  Fold of WT: 1.31
[2]; Suppl. Tables 4/5, SSTR3 N101(2.64)V, n=3
  EC50: 83.7 ± 1.31 nM
[2]; best-fit, SSTR3 N101V-1
  Bottom: 2.574
  EC50: 85.3 nM
  LogEC50: -7.069
  Span: 181.5
[2]; best-fit, SSTR3 N101V-2
  Bottom: 5.233
  LogEC50: -7.01
  Span: 137.4
[2]; best-fit, SSTR3 N101V-3
  Bottom: 5.233
  LogEC50: -7.01
  Span: 137.4
[3]
  EC50: 58.1 ± 1.43 nM
  Emax: 108 ± 8.99%
[3]; Suppl. Tables 4/5, SSTR3 H192(45.51)T
  Fold of WT: 0.91
[3]; best-fit, SSTR3 H192T-1
  Bottom: 14.85
  LogEC50: -7.173
  Span: 475
  Top: 489.8
[3]; best-fit, SSTR3 H192T-1, read-out: EC50
  EC50: 67.2 nM
[3]; best-fit, SSTR3 H192T-2
  Bottom: 37.09
  LogEC50: -7.251
  Span: 569.9
  Top: 607
[3]; best-fit, SSTR3 H192T-2, read-out: EC50
  EC50: 56 nM
[4]
  Internalization of mutants: slightly change in the internalization
[5]
  Apoptotic rate versus octreotide: increased apoptotic rate
  Proapoptotic activity: able to activate proapoptotic pathways
[6]
  Effect of microswitch mutations: decreased the potency of β-arrestin recruitment more markedly than the activation ability of Gi signaling
  Effect of mutants on both signals: markedly affected both β-arrestin and Gi signal
[6]; SSTR2, compared with octreotide
  Signal bias: more G protein-biased ligand than octreotide; also recorded: better G-protein-biased agonist of SSTR2 compared with octreotide
[7]
  Emax: 50.9 ± 2.01%
[8]
  Emax: 41.3 ± 3%
